The target in data set [1] is T1, FAAH (Rattus norvegicus, UniProt P97612).
T1 sequence (P97612 1-579): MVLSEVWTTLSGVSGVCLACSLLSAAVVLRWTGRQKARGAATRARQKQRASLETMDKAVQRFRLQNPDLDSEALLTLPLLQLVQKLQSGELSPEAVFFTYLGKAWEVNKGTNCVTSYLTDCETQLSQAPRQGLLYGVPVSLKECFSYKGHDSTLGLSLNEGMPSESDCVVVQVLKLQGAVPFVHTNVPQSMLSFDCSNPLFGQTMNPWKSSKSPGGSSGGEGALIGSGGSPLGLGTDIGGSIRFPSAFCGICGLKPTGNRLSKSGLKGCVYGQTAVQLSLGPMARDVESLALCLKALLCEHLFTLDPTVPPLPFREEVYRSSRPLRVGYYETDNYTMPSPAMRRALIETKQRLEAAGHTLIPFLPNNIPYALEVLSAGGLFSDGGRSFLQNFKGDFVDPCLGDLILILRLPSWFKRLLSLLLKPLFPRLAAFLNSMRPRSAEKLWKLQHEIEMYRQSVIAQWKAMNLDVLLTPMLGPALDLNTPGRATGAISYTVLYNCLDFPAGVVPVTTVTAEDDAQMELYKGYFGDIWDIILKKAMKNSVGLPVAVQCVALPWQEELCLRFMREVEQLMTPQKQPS
Details: other: literature data. The following applies: read-out: Literature (ref) IC50; cited from earlier work.

Data set [2] concerns the target T1, FAAH. The following applies: cited from earlier work.
Another data set concerns the target T2, human FAAH (Homo sapiens, UniProt O00519).
T2 construct: T84 frozen pellets were homogenized in FAAH assay buffer; endogenous in cells; host or cells: T84 human colorectal carcinoma cells (ATCC CCL-248), homogenate/membranes
T2 sequence (O00519 1-579): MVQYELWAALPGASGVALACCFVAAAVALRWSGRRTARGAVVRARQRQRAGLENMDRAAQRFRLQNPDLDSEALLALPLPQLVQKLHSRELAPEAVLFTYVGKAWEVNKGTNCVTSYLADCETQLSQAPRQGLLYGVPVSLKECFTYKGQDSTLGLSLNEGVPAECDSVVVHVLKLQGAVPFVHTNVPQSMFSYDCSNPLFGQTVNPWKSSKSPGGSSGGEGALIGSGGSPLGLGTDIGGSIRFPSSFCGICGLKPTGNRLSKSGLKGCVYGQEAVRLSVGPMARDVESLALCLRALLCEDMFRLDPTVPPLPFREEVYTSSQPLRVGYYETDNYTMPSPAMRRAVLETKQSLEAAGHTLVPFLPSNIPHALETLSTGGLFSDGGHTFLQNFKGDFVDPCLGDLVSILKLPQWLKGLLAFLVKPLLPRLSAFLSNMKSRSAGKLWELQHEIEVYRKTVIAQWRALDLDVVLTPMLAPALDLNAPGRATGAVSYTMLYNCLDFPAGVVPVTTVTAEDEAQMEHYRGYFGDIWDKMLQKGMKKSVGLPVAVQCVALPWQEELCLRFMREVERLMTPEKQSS
The experiment in a line: FAAH charcoal filter-plate assay with 3H-anandamide in T84 membranes. It is filed as biochemical. To be noted: for IC50 values (in words): product inhibition.

In data set [3] the target is T3, FAAH (Mus musculus, UniProt O08914).
T3 construct: it abolished anandamide hydrolysis in N18 mouse neuroblastoma cells; host or cells: N18 mouse neuroblastoma cells
T3 sequence (O08914 1-579): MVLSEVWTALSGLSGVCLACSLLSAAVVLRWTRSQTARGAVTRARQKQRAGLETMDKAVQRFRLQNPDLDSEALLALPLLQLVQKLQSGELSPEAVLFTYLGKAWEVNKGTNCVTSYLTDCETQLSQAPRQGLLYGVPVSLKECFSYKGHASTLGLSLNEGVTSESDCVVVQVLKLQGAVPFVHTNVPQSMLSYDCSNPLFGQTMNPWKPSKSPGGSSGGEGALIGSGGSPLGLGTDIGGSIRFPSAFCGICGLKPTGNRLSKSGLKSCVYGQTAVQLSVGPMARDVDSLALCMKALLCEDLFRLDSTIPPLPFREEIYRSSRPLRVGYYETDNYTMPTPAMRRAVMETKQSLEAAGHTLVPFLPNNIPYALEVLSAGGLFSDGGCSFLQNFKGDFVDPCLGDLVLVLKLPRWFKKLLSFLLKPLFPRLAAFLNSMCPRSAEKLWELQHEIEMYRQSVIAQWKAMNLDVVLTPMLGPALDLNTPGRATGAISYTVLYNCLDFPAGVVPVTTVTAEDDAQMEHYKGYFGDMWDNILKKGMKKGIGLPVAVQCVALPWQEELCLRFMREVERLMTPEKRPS
The following applies: cited from earlier work.

The target of data set [4] is FAAH (Homo sapiens, UniProt O00519). The following applies: human brain; Maccarrone et al. 1999; cited from earlier work.
The mark [5] stands for this setting: T84 membranes, room temperature 60 min, average ± S.E. of 2-5 experiments, each in triplicate, read-out: IC50.

Values joined by “and” are separate entries in the source; they are usually repeats but may differ in a detail not shown here. Equal values may be shown once. Read-outs that look alike come from different tables or passages of the source.

As for `O=S(=O)(F)Cc1ccccc1` [Phenylmethylsulfonyl fluoride], the values for the 50% inhibitory concentration (IC50) on FAAH [1] and against human FAAH (IC50) were 1.2 to 69 µM and 16 µM, respectively. The “inhibition of the hydrolysis of rat brain microsomal anandamide” value at FAAH [2] (at 25 μM, Desarnaud et al. 1995) is listed as 48%. The “anandamide hydrolysis in N18 mouse neuroblastoma cells” value at FAAH [3] (at a concentration of 100 μM, Maurelli et al. 1995) is on record as “abolished”.

Turning to `CCCCCCCC/C=C\CCCCCCCC(=O)O` [Oleic acid], on human FAAH (T84 membranes), the “IC50 values (in words)” value was “low micromolar range”. Besides, the IC50 on human FAAH (setting [5]) was 1.94 ± 0.401 µM.

Regarding `CCCCC/C=C\C/C=C\C/C=C\C/C=C\CCCC(=O)O` [Arachidonic acid], the “IC50 values (in words)” value against human FAAH (T84 membranes) is listed as “low micromolar range”. Besides, the 50% inhibitory concentration (IC50) at human FAAH (setting [5]) was found to be 0.931 ± 0.255 µM.

With `CCCCCCCC/C=C\CCCCCCCCC(=O)C(F)(F)F` [Oleyl trifluoromethyl ketone, oleyl trifluoromethyl ketone], on FAAH [1], the IC50 was 0.039 µM and 0.024 to 0.041 µM.

Turning to `CCCCC/C=C\C/C=C\C/C=C\C/C=C\CCCC(=O)NCCO` [anandamide, N-arachidonoylethanolamine], the Km was 12.7 µM at FAAH [2], 1.1 ± 0.17 µM on human FAAH (read-out: Km of hydrolysis by FAAH), 2 µM at FAAH [4] and 9 µM on FAAH [3]. Also, the “activity of FAAH” value on FAAH [3] is listed as “abolished”.

The term IC50 denotes the concentration at which inhibition is half-maximal. For orientation: Km means the concentration of substrate that gives half-maximal velocity.

Source of the values: patent US20070134753A1, “Assay for determining the activity of fatty acid amide hydrolase” (priority 2002, published 2007).
